From ChEMBL document CHEMBL1137380, “Conformationally restricted dipeptide amides as potent and selective neuronal nitric oxide synthase inhibitors” (J Med Chem, 2006) come the findings set out here.

Experiment [1] is described as follows: Selectivity for rat nNOS over bovine eNOS.
Experiment [2] deals with T1, Nitric oxide synthase 3 (Bos taurus, UniProt P29473).
T1 sequence (P29473 whole entry): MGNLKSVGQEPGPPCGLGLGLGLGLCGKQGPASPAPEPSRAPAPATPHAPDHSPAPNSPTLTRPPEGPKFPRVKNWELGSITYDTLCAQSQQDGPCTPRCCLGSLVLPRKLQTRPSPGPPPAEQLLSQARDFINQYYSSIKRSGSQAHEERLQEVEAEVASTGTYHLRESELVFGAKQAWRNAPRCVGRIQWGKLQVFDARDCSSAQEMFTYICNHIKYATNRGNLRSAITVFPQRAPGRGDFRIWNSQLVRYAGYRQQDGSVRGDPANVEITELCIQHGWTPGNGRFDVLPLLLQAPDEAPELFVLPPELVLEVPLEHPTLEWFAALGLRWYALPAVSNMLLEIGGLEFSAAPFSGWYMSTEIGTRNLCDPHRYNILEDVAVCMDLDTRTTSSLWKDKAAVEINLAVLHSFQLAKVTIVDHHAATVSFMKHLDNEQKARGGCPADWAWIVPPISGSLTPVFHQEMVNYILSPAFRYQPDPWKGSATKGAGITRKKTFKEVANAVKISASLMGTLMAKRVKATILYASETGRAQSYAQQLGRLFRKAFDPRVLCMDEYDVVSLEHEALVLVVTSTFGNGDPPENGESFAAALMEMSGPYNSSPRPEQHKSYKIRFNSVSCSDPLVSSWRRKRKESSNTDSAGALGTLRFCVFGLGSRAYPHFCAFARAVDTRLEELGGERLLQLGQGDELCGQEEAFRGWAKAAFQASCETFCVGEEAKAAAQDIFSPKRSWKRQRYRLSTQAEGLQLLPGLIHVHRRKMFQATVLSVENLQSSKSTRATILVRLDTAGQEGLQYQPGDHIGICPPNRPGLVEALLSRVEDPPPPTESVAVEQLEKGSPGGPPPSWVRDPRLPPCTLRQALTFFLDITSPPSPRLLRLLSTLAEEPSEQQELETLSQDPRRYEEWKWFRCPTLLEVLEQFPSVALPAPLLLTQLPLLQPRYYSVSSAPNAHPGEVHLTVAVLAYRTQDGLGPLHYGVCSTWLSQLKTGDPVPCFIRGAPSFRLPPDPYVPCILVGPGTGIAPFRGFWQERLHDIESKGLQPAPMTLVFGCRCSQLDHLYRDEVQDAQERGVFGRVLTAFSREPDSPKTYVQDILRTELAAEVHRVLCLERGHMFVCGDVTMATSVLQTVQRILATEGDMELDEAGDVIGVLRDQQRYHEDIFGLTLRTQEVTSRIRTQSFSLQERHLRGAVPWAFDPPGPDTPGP
Kind of experiment: Inhibition of bovine eNOS.

Experiment [3] deals with T2, Nitric oxide synthase, inducible (Mus musculus, UniProt P29477).
T2 sequence (P29477 whole entry): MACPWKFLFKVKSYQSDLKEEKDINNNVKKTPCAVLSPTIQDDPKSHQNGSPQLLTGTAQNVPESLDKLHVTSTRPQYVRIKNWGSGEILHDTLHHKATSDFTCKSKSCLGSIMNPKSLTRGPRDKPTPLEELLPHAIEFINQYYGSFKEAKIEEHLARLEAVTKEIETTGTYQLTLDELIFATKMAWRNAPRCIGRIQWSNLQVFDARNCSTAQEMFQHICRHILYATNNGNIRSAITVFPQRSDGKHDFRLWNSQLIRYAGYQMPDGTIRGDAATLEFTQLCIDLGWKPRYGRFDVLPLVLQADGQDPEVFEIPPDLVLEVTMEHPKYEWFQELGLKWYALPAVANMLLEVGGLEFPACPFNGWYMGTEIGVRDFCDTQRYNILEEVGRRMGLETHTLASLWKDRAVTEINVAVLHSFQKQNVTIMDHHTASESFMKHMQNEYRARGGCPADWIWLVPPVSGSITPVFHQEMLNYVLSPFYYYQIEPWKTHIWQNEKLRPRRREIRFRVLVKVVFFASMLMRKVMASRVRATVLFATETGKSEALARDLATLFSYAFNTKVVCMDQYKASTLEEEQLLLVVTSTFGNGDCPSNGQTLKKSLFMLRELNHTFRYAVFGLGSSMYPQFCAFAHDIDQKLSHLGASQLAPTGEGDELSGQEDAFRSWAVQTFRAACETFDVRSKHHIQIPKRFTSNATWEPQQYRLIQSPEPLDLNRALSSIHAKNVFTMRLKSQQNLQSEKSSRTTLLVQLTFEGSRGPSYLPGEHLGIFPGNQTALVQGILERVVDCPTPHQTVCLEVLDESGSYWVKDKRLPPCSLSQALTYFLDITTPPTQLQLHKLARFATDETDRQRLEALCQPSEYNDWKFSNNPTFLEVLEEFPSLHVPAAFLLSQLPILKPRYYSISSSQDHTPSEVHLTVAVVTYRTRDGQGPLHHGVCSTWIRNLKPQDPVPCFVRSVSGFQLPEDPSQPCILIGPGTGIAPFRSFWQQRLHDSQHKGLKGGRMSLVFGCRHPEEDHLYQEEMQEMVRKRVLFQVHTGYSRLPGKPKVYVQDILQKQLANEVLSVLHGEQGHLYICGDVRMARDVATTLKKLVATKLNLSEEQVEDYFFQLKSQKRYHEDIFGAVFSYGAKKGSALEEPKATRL
Kind of experiment: Inhibition of murine macrophage iNOS.

The target in experiment [4] is Nitric oxide synthase 1 (Rattus norvegicus, UniProt P29476). Kind of experiment: Inhibition of rat nNOS.
Chain of Nitric oxide synthase 1 (P29476 whole entry): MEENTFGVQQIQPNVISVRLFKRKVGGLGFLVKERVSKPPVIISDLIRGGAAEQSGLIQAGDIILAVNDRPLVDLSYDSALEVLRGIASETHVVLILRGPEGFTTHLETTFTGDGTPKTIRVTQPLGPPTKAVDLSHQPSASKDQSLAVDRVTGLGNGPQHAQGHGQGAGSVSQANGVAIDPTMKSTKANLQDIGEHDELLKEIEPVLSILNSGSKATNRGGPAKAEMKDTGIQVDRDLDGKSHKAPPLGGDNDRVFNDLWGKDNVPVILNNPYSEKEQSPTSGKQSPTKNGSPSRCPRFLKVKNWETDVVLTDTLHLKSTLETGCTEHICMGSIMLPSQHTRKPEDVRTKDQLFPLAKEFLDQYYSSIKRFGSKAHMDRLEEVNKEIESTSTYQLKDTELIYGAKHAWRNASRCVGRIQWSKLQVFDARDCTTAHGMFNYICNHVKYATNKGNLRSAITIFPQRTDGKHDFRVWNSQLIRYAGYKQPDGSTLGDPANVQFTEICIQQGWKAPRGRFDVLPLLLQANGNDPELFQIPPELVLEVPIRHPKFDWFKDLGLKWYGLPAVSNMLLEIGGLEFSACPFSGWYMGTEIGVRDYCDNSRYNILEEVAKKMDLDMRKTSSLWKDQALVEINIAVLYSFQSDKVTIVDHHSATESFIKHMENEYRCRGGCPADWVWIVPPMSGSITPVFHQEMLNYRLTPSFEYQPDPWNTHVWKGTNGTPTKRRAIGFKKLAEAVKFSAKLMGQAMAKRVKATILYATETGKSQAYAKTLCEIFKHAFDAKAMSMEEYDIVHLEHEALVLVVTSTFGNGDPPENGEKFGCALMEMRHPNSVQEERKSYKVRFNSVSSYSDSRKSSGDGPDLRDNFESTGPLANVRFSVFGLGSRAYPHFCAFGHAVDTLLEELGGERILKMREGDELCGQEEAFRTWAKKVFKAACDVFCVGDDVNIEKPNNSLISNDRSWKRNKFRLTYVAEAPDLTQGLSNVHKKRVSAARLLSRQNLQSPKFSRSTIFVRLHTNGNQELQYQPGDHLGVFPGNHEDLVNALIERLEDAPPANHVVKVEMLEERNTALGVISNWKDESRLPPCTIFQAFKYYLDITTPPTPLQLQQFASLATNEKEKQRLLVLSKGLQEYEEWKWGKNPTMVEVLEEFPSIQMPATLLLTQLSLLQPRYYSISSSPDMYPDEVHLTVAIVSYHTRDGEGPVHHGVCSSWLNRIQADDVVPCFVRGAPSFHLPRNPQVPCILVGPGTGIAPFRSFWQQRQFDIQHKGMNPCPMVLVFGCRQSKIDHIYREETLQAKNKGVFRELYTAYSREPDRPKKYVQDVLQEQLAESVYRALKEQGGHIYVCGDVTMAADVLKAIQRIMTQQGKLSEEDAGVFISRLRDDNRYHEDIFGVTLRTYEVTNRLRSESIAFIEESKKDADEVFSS
A short description of experiment [5]: Selectivity for rat nNOS over murine iNOS.

As a reminder, the IC50 is the concentration that inhibits the measured activity by half. A low value points to inhibition by little substance. In general, Ki refers to a measure of affinity in units of concentration, obtained from inhibition or displacement. A lower Ki goes with tighter binding. On to `NC(=O)[C@@H]1C[C@@H](NC(=O)[C@@H](N)CCC/N=C(\N)N[N+](=O)[O-])CN1Cc1ccccc1`, for which the Ratio Ki in experiment [1] worked out at 485; in experiment [5] it was 121. In addition, the IC50 came to 1.1 mM in experiment [2], 87.5 µM in experiment [3] and 2.85 µM in experiment [4]. The results for the Ki in experiment [2], in experiment [3] and in experiment [4] were 159 µM, 39.7 µM and 0.328 µM, respectively.
In the case of `NC(=O)[C@H]1NCC[C@@H]1NC(=O)[C@@H](N)CCC/N=C(\N)N[N+](=O)[O-]`, the IC50 was found to be 1.38 mM in experiment [2] and 12.7 µM in experiment [3]. In addition, the Ki in experiment [2] was determined as 200 µM; in experiment [3] it was 5.76 µM.
Regarding `CN1C[C@H](NC(=O)[C@@H](N)CCC/N=C(\N)N[N+](=O)[O-])C[C@H]1C(N)=O`, the results for the Ratio Ki in experiment [1] and in experiment [5] were 29 and 4.5, respectively. For the same compound, the IC50 came to 1.69 mM in experiment [2], 83.5 µM in experiment [3] and 73.5 µM in experiment [4]. In addition, the figures for the inhibitory constant (Ki) in experiment [2], in experiment [3] and in experiment [4] were 246 µM, 37.9 µM and 8.46 µM, respectively.
